Test results reported in ChEMBL document CHEMBL5352428, “Covalent inhibitors of bacterial peptidoglycan biosynthesis enzyme MurA with chloroacetamide warhead” (Eur J Med Chem, 2022).
Activity calls are given as the source filed them. The rule behind the calls is not given here.

How the values were obtained:
[1] = target: UDP-N-acetylglucosamine 1-carboxyvinyltransferase (Escherichia coli K-12, UniProt P0A749); assay: (§1) Inhibition of recombinant Escherichia coli MurA expressed in Escherichia coli NiCo21 using UNAG and PEP as substrate preincubated for 30 mins in presence of UNAG followed by PEP substrate addition and measured after 15 mins by malachite green based colorimetric assay
Chain of UDP-N-acetylglucosamine 1-carboxyvinyltransferase (P0A749 whole entry): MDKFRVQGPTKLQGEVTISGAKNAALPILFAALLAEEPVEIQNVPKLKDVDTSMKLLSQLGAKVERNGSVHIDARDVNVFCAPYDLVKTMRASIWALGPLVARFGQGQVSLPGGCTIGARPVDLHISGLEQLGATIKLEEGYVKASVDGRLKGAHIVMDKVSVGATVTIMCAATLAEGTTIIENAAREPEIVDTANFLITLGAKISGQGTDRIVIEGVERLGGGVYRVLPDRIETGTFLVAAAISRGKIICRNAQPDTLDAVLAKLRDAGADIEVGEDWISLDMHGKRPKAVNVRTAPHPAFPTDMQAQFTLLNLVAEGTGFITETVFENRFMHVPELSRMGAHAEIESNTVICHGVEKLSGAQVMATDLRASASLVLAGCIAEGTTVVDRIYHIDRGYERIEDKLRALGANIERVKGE

[2] = Thiol reactivity of compound at pH 7.4 buffer at 100 uM and measured for 4 hrs every 5 mins in presence of DTNB and TCEP by microplate reader analysis; assay type: physicochemical; details: pH 7.4, 4 h
Staphylococcus aureus = assay: Antibacterial activity against Staphylococcus aureus ATCC 29213 assessed as bacterial growth inhibition at <= 128 ug/ml incubated for 24 hrs by broth dilution method; assay type: functional, organism-based; details: dose <= 128.0 µg/ml
Escherichia coli = assay: Antibacterial activity against Escherichia coli ATCC 25922 assessed as bacterial growth inhibition at <=128 ug/ml incubated for 24 hrs by broth dilution method; assay type: functional, organism-based; details: dose <= 128.0 µg/ml
[3] = target: UDP-N-acetylglucosamine 1-carboxyvinyltransferase (Escherichia coli K-12) (UniProt P0A749); assay: as §1, with “coli NiCo21 assessed as residual activity using UNAG” for “coli NiCo21 using UNAG”, “as substrate at 500 uM preincubated for” for “as substrate preincubated for”; details: time 45.0 min
Chain of UDP-N-acetylglucosamine 1-carboxyvinyltransferase (Escherichia coli K-12) (P0A749 whole entry): as above

[4] = target: UDP-N-acetylglucosamine 1-carboxyvinyltransferase (Escherichia coli K-12) (UniProt P0A749); assay: Irreversible inhibition of recombinant Escherichia coli MurA expressed in Escherichia coli NiCo21 assessed as residual activity using UNAG and PEP as substrate at 1 mM preincubated for 30 mins in presence of UNAG followed by PEP substrate addition and measured after 15 mins by malachite green based colorimetric assay; details: time 45.0 min
[5] = target: UDP-N-acetylglucosamine 1-carboxyvinyltransferase (Escherichia coli K-12) (UniProt P0A749); assay: Irreversible inhibition of recombinant Escherichia coli MurA expressed in Escherichia coli NiCo21 using UNAG and PEP as substrate assessed as second-order rate constant for enzyme inactivation, ratio of Kinact/Ki preincubated for 30 mins in presence of UNAG followed by 100 fold dilution and PEP substrate addition and measured after 15 mins by malachite green based colorimetric assay; details: time 45.0 min
[6] = Thiol reactivity of compound at pH 7.4 buffer assessed as fold decrease by measuring second order rate constant at 100 uM and measured for 4 hrs every 5 mins in presence of DTNB and TCEP by microplate reader analysis relative to Iodoacetamide; assay type: physicochemical; details: pH 7.4, 4 h

Row | IC50 [1] [µM] | Drug metabolism [2] | Activity [3] [%] | Activity [4] [%] | Ratio [5] | fold change (FC) [6] | SMILES | Activity (Staphylococcus aureus) | Activity (Escherichia coli)
1 | 162 | Metabolite_Detected | – | – | – | – | O=C(CCl)N1CCC(Sc2nnc(-c3ccccc3)o2)CC1 | inactive | inactive
2 | – | Metabolite_Detected | 47 | – | – | – | O=C(CCl)N1CCC(COP(=O)(O)O)C1 (stereo not drawn) | inactive | inactive
3 | – | – | – | 96.1 | – | – | CC(=O)NC1CCCC2CCCCC21 (stereo not drawn) | – | –
4 | – | Metabolite_Detected | 100 | – | – | – | CCOC(=O)C1CCN(C(=O)CCl)CC1 | inactive | inactive
5 | – | Metabolite_Detected | 100 | – | – | – | CCOC(=O)C1CCCN(C(=O)CCl)C1 (stereo not drawn) | inactive | inactive
6 | – | Metabolite_Detected | 71 | – | – | – | O=C(CCl)N1CCC(c2ccccc2)CC1 | inactive | inactive
7 | – | Metabolite_Detected | 81 | – | – | – | O=C(CCl)N1CCN(CC(=O)N2CCCCC2)CC1 | inactive | inactive
8 | 137 | Metabolite_Detected | – | – | 2.79 10^-4/µM/min | – | Cc1ccc(S(=O)(=O)NC(=O)CC2CCN(C(=O)CCl)CC2)cc1 | inactive | inactive
9 | – | Metabolite_Notdetected | 79 | – | – | – | O=C(CCl)NC1CCC2CCCCC2C1 (stereo not drawn) | inactive | inactive
10 | – | Metabolite_Detected | 75 | – | – | – | COC(=O)c1ccc(NC(=O)CCl)o1 | inactive | inactive
11 | – | – | 90 | – | – | – | O=C(CCl)N1CCN(c2ccccc2)CC1 | inactive | inactive
12 | – | Metabolite_Detected | 77 | – | – | – | COc1ccc(N2CCN(C(=O)CCl)CC2)cc1 | inactive | inactive
13 | – | Metabolite_Detected | 95 | – | – | – | CCOC(=O)N1CCN(C(=O)CCl)CC1 | inactive | inactive
14 | – | Metabolite_Detected | 99 | – | – | – | O=C(CCl)N1CCN(Cc2ccc3c(c2)OCO3)CC1 | inactive | inactive
15 | – | Metabolite_Detected | 54 | – | – | 167 | O=C(CCl)Nc1ccc(C2CCCCC2)cc1 | inactive | inactive
16 | 195 | Metabolite_Detected | – | – | 7.13 10^-3/µM/min | – | O=C(CCl)N1CCC(Sc2nccs2)CC1 | inactive | inactive
17 | – | Metabolite_Detected | 61 | – | – | – | CC(C)(C)OC(=O)NC1CCN(C(=O)CCl)CC1 | inactive | inactive
18 | – | Metabolite_Detected | 95 | – | – | – | O=C(O)C1CCN(C(=O)CCl)CC1 | inactive | inactive
19 | 172 | Metabolite_Detected | – | – | – | – | COc1ccc2nc(SC3CCN(C(=O)CCl)CC3)[nH]c2n1 | inactive | inactive
20 | – | Metabolite_Notdetected | 77 | – | – | – | O=C(CCl)NC12CC3CC(CC(C3)C1)C2 | inactive | inactive
21 | – | Metabolite_Detected | 73 | – | – | – | O=C(CCl)N1CCCc2ccccc21 | inactive | inactive
22 | – | Metabolite_Detected | 75 | – | – | – | O=C(O)C1CCCN(C(=O)CCl)C1 (stereo not drawn) | inactive | inactive
23 | 240 | Metabolite_Detected | – | – | 4.16 10^-4/µM/min | – | CS(=O)(=O)NC1CCN(C(=O)CCl)CC1 | inactive | inactive
24 | 263 | Metabolite_Detected | – | – | 2.99 10^-4/µM/min | 2 | O=C(CCl)N1CCC(N2CCC(Br)C2=O)C1 (stereo not drawn) | inactive | inactive
25 | – | Metabolite_Detected | 70 | – | – | – | O=C(CCl)N1CCc2ccccc2C1 | inactive | inactive

Continued, compound first:

Row | SMILES | IC50 [1] [µM] | Drug metabolism [2] | Activity [3] [%] | Activity [4] [%] | Ratio [5] | fold change (FC) [6] | Activity (Staphylococcus aureus) | Activity (Escherichia coli)
26 | O=C(CCl)Nc1ccc(-c2ncco2)cc1 | – | Metabolite_Detected | 71 | – | – | – | inactive | inactive
27 | O=C(CCl)N1CCCC(OP(=O)(Oc2ccccc2)Oc2ccccc2)C1 (stereo not drawn) | 543 | Metabolite_Detected | – | – | – | – | inactive | inactive
28 | CC1CCCN(C(=O)CCl)C1 (stereo not drawn) | – | Metabolite_Detected | 80 | – | – | – | inactive | inactive
29 | O=C(CCl)Nc1ccc(-c2nnn[nH]2)cc1 | – | Metabolite_Detected | 100 | – | – | – | inactive | inactive
30 | CC(C)CNC(=O)CCl | – | Metabolite_Notdetected | 90 | – | – | – | inactive | inactive
31 | N#Cc1ccc(NC(=O)CCl)cc1 | – | Metabolite_Detected | 89 | – | – | – | inactive | inactive
32 | O=C(CCl)NC1CCCCC1 | – | Metabolite_Notdetected | 74 | – | – | – | inactive | inactive
33 | O=C(CCl)Nc1ccc2ccccc2c1 | – | Metabolite_Detected | 83 | – | – | – | inactive | inactive
34 | O=C(CCl)Nc1nccs1 | – | Metabolite_Detected | 55 | – | – | 4 | inactive | inactive
35 | Cc1cc(NC(=O)CCl)on1 | – | Metabolite_Detected | 71 | – | – | – | inactive | inactive
36 | COc1cc(NC(=O)CCl)cc(OC)c1OC | – | Metabolite_Detected | 92 | – | – | – | inactive | inactive
37 | NC1CCN(C(=O)CCl)CC1 | – | Metabolite_Detected | 82 | – | – | – | inactive | inactive
38 | O=C(CCl)Nc1ccc(C(F)(F)F)cc1 | – | Metabolite_Detected | 77 | – | – | – | inactive | inactive
39 | O=C(CCl)N1CCC(COP(=O)(Oc2ccccc2)Oc2ccccc2)C1 (stereo not drawn) | 311 | Metabolite_Detected | – | – | – | – | inactive | inactive
40 | O=C(CCl)Nc1ccc2nsnc2c1 | 287 | Metabolite_Detected | – | – | 4.84 10^-4/µM/min | – | inactive | inactive
41 | O=C(CCl)Nc1ccncc1 | – | Metabolite_Detected | 77 | – | – | – | inactive | inactive
42 | O=C(CCl)N1CCOCC1 | – | Metabolite_Detected | 87 | – | – | – | inactive | inactive
43 | O=C(CCl)N1CCCCC1 | – | Metabolite_Detected | 79 | – | – | – | inactive | inactive
44 | O=C(CCl)Nc1cccc2ccccc12 | – | Metabolite_Detected | 81 | – | – | – | inactive | inactive
45 | CCCCOc1ccc(NC(=O)CCl)cc1 | – | Metabolite_Detected | 100 | – | – | – | inactive | inactive
46 | O=C(CCl)NC1CCCC(OP(=O)(Oc2ccccc2)Oc2ccccc2)C1 (stereo not drawn) | – | Metabolite_Detected | 89 | – | – | – | inactive | inactive
